In PubChem BioAssay (NCI):
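Grown in 96-well plates, cells were treated for 48 hours with each compound at five concentrations. Insufficient inhibition: endpoint recorded as highest concentration tested. GI50 = concentration required for 50% inhibition of growth. TGI: total growth inhibition.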

Key:
Experiment in all cases: inhibition of tumour cell growth, NCI panel, 48 h
NCI-H522 lung = system: NCI-H522 lung
SF-268 CNS = system: SF-268 CNS
M14 melanoma = system: M14 melanoma
T-47D breast = system: T-47D breast
786-0 renal = system: 786-0 renal
OVCAR-8 ovarian = system: OVCAR-8 ovarian
MDA-MB-435 = system: MDA-MB-435
HT29 colon = system: HT29 colon
OVCAR-5 ovarian = system: OVCAR-5 ovarian
SK-MEL-2 melanoma = system: SK-MEL-2 melanoma
NCI-H460 lung = system: NCI-H460 lung
TK-10 renal = system: TK-10 renal
K-562 leukemia = system: K-562 leukemia
SK-MEL-5 melanoma = system: SK-MEL-5 melanoma
BT-549 breast = system: BT-549 breast
HS 578T breast = system: HS 578T breast
COLO 205 colon = system: COLO 205 colon
HCC-2998 colon = system: HCC-2998 colon
ACHN renal = system: ACHN renal
SN12C renal = system: SN12C renal
CCRF-CEM leukemia = system: CCRF-CEM leukemia
NCI/ADR-RES ovarian = system: NCI/ADR-RES ovarian
A549 NSCLC = system: A549 NSCLC
LOX IMVI melanoma = system: LOX IMVI melanoma
KM12 colon = system: KM12 colon
SW-620 colon = system: SW-620 colon
HCT-15 colon = system: HCT-15 colon
HCT-116 colon = system: HCT-116 colon
U251 CNS = system: U251 CNS
SNB-19 CNS = system: SNB-19 CNS
UACC-257 melanoma = system: UACC-257 melanoma
RPMI-8226 leukemia = system: RPMI-8226 leukemia
UACC-62 melanoma = system: UACC-62 melanoma
HL-60(TB) leukemia = system: HL-60(TB) leukemia
A498 renal = system: A498 renal
SR leukemia = system: SR leukemia
OVCAR-4 ovarian = system: OVCAR-4 ovarian
DU-145 prostate = system: DU-145 prostate
SF-539 CNS = system: SF-539 CNS
HOP-92 NSCLC = system: HOP-92 NSCLC
HOP-62 NSCLC = system: HOP-62 NSCLC
IGROV1 ovarian = system: IGROV1 ovarian
MOLT-4 leukemia = system: MOLT-4 leukemia
NCI-H23 lung = system: NCI-H23 lung
MALME-3M melanoma = system: MALME-3M melanoma
PC-3 prostate = system: PC-3 prostate
UO-31 renal = system: UO-31 renal
NCI-H226 lung = system: NCI-H226 lung
SK-OV-3 ovarian = system: SK-OV-3 ovarian
CAKI-1 renal = system: CAKI-1 renal
SK-MEL-28 melanoma = system: SK-MEL-28 melanoma
RXF 393 renal = system: RXF 393 renal
SNB-75 CNS = system: SNB-75 CNS
OVCAR-3 ovarian = system: OVCAR-3 ovarian
MDA-MB-231 breast = system: MDA-MB-231 breast
SF-295 CNS = system: SF-295 CNS
EKVX NSCLC = system: EKVX NSCLC
MCF7 breast = system: MCF7 breast

Which results are given for O=C(Nc1ccc(F)cc1F)c1cc(I)ccc1O?
GI50 (NCI-H522 lung): 2.73 µM; TGI (NCI-H522 lung): 14.1 µM; GI50 (SF-268 CNS): 3 µM; TGI (SF-268 CNS): 47.4 µM; GI50 (M14 melanoma): 2.21 µM; TGI (M14 melanoma): 8.05 µM; GI50 (T-47D breast): 1.99 µM; TGI (T-47D breast): 6.8 µM; GI50 (786-0 renal): 3.13 µM; TGI (786-0 renal): 9.7 µM; GI50 (OVCAR-8 ovarian): 3.23 µM; TGI (OVCAR-8 ovarian): > 100 µM; GI50 (MDA-MB-435): 3.02 µM; TGI (MDA-MB-435): 10.1 µM; GI50 (HT29 colon): 4.06 µM; TGI (HT29 colon): > 100 µM; GI50 (OVCAR-5 ovarian): 3.72 µM; TGI (OVCAR-5 ovarian): > 100 µM; GI50 (SK-MEL-2 melanoma): 2.29 µM; TGI (SK-MEL-2 melanoma): 6.07 µM; GI50 (NCI-H460 lung): 3.13 µM; TGI (NCI-H460 lung): > 100 µM; GI50 (TK-10 renal): 4.73 µM; TGI (TK-10 renal): 31.1 µM; GI50 (K-562 leukemia): 3.16 µM; TGI (K-562 leukemia): > 100 µM; GI50 (SK-MEL-5 melanoma): 1.7 µM; TGI (SK-MEL-5 melanoma): 3.35 µM; GI50 (BT-549 breast): 1.99 µM; TGI (BT-549 breast): 5.16 µM; GI50 (HS 578T breast): 2.37 µM; TGI (HS 578T breast): 8.07 µM; GI50 (COLO 205 colon): 5.95 µM; TGI (COLO 205 colon): 21.7 µM; GI50 (HCC-2998 colon): 3.73 µM; TGI (HCC-2998 colon): 47 µM; GI50 (ACHN renal): 2.5 µM; TGI (ACHN renal): 7.62 µM; GI50 (SN12C renal): 2.46 µM; TGI (SN12C renal): 8.54 µM; GI50 (CCRF-CEM leukemia): 4.05 µM; TGI (CCRF-CEM leukemia): > 100 µM; GI50 (NCI/ADR-RES ovarian): 2.92 µM; TGI (NCI/ADR-RES ovarian): 33.1 µM; GI50 (A549 NSCLC): 3.1 µM; TGI (A549 NSCLC): > 100 µM; GI50 (LOX IMVI melanoma): 3.31 µM; TGI (LOX IMVI melanoma): 17.6 µM; GI50 (KM12 colon): 2.93 µM; TGI (KM12 colon): 9.53 µM; GI50 (SW-620 colon): 3.39 µM; TGI (SW-620 colon): 90.7 µM; GI50 (HCT-15 colon): 3.27 µM; TGI (HCT-15 colon): 45.5 µM; GI50 (HCT-116 colon): 2.53 µM; TGI (HCT-116 colon): 7.6 µM; GI50 (U251 CNS): 3.07 µM; TGI (U251 CNS): > 100 µM; GI50 (SNB-19 CNS): 3.11 µM; TGI (SNB-19 CNS): > 100 µM; GI50 (UACC-257 melanoma): 2.09 µM; TGI (UACC-257 melanoma): 7.09 µM; GI50 (RPMI-8226 leukemia): 2.5 µM; TGI (RPMI-8226 leukemia): 8.96 µM; GI50 (UACC-62 melanoma): 1.46 µM; TGI (UACC-62 melanoma): 4.49 µM; GI50 (HL-60(TB) leukemia): 3.08 µM; TGI (HL-60(TB) leukemia): 9.13 µM; GI50 (A498 renal): 1.45 µM; TGI (A498 renal): 3.31 µM; GI50 (SR leukemia): 3.05 µM; TGI (SR leukemia): > 100 µM; GI50 (OVCAR-4 ovarian): 2.49 µM; GI50 (DU-145 prostate): 3.87 µM; TGI (DU-145 prostate): > 100 µM; GI50 (SF-539 CNS): 2.83 µM; TGI (SF-539 CNS): 10.2 µM; GI50 (HOP-92 NSCLC): 1.2 µM; TGI (HOP-92 NSCLC): 4.65 µM; GI50 (HOP-62 NSCLC): 2.42 µM; TGI (HOP-62 NSCLC): 7.87 µM; GI50 (IGROV1 ovarian): 2.4 µM; TGI (IGROV1 ovarian): > 100 µM; GI50 (MOLT-4 leukemia): 3.15 µM; TGI (MOLT-4 leukemia): 16.3 µM; GI50 (NCI-H23 lung): 2.72 µM; TGI (NCI-H23 lung): 10.4 µM; GI50 (MALME-3M melanoma): 2.08 µM; TGI (MALME-3M melanoma): 6.45 µM; GI50 (PC-3 prostate): 2.53 µM; TGI (PC-3 prostate): 8.73 µM; GI50 (UO-31 renal): 1.63 µM; TGI (UO-31 renal): 6.11 µM; GI50 (NCI-H226 lung): 2.46 µM; TGI (NCI-H226 lung): 15.8 µM; GI50 (SK-OV-3 ovarian): 1.12 µM; TGI (SK-OV-3 ovarian): 4.27 µM; GI50 (CAKI-1 renal): 1.92 µM; TGI (CAKI-1 renal): 6.49 µM; GI50 (SK-MEL-28 melanoma): 1.93 µM; TGI (SK-MEL-28 melanoma): 6.84 µM; GI50 (RXF 393 renal): 2.5 µM; TGI (RXF 393 renal): 7 µM; GI50 (SNB-75 CNS): 1.36 µM; TGI (SNB-75 CNS): 4.58 µM; GI50 (OVCAR-3 ovarian): 3.13 µM; TGI (OVCAR-3 ovarian): 23.2 µM; GI50 (MDA-MB-231 breast): 1.87 µM; TGI (MDA-MB-231 breast): 5.8 µM; GI50 (SF-295 CNS): 1.95 µM; TGI (SF-295 CNS): 3.94 µM; GI50 (EKVX NSCLC): 2.19 µM; TGI (EKVX NSCLC): 9.14 µM; GI50 (MCF7 breast): 2.77 µM; TGI (MCF7 breast): > 100 µM
